We go through seven compounds from ChEMBL document CHEMBL4715862, “Anti-HIV Tigliane Diterpenoids from Wikstroemia scytophylla” (J Nat Prod, 2020).

In series [1] the test system is Human immunodeficiency virus 1. The experiment in a line: Antiviral activity against HIV-1 NL4-3 infected in human MT4 cells assessed as reduction in p24 gag protein expression incubated for 48 hrs by ELISA. In kind it is functional, organism-based. The conditions noted are these: Human immunodeficiency virus 1, NL4-3, MT4, 48 h.
A short description of series [2]: Cytotoxicity against human MT4 cells assessed as reduction in cell viability after 48 hrs by CellTiter-Glo assay. In kind it is cell-based.
A short description of series [3]: Selectivity ratio of CC50 for cytotoxicity against human MT4 cells to IC50 for antiviral activity against HIV-1 NL4-3 infected in human MT4 cells. The conditions noted are these: read-out: Ratio CC50/IC50. In kind it is toxicity, cell-based.

For `CCCCCCCC(=O)O[C@@]12[C@H](OC(=O)c3ccccc3)[C@@H](C)[C@@]3(O)[C@H]([C@@H]1C2(C)C)[C@@H](O)C(CO)=C[C@]1(O)C(=O)C(C)=C[C@@H]31`, the half-maximal inhibitory concentration (IC50) in series [1] was more than 164 nM. Also, the half-maximal cytotoxic concentration (CC50) at 48 h in series [2] is more than 164 nM.
On to `CCCCCCCC(=O)O[C@@]12[C@H](OC(=O)c3ccccc3)[C@@H](C)[C@@]3(O)[C@@H](C(=O)C(CO)=C[C@]4(O)C(=O)C(C)=C[C@@H]34)[C@@H]1C2(C)C`, for which the IC50 in series [1] amounted to 3.8 nM. In series [2], the CC50 at 48 h was more than 164 nM.
Consider `CCCCCCCC(=O)O[C@@]12[C@H](OC(=O)c3ccccc3)[C@@H](C)[C@@]3(O)C(=C[C@](O)(CO)C[C@]4(O)C(=O)C(C)=C[C@@H]34)[C@@H]1C2(C)C`, for which the half-inhibitory concentration (IC50) in series [1] is more than 164 nM. In addition, the CC50 at 48 h in series [2] is more than 164 nM.
For the compound `CCCCCCCC(=O)O[C@@]12[C@H](OC(=O)c3ccccc3)[C@@H](C)[C@]3(O)[C@@H]4C=C(C)C(=O)[C@@]4(O)[C@H](O)C(CO)=C[C@H]3[C@@H]1C2(C)C`, the IC50 in series [1] came to 12.8 nM. In series [2], the CC50 at 48 h was more than 164 nM.
The corresponding values for `C=C(C)[C@]12C[C@@H](COC(=O)c3ccccc3)[C@@]34O[C@]5(O[C@@H]1[C@@H]3[C@@H]1O[C@]1(CO)[C@@H](O)[C@@]1(O)[C@H]4[C@H]([C@H](C)[C@@H]1OC(=O)c1ccccc1)[C@H](C)CCCCCC[C@H]5O)O2` are 0.07 nM and more than 5 nM.
On to `CCCCCCCC(=O)O[C@@]12[C@H](OC(=O)CCCCC)[C@@H](C)[C@@]3(O)[C@@H](C(=O)C(CO)=C[C@]4(O)C(=O)C(C)=C[C@@H]34)[C@@H]1C2(C)C`, for which, in series [1], the 50% inhibitory concentration (IC50) was more than 164 nM. Moreover, the CC50 at 48 h in series [2] was more than 164 nM.
Take `CCCCCCCC(=O)O[C@@]12[C@H](OC(=O)c3ccccc3)[C@@H](C)[C@@]3(O)[C@H]([C@@H]1C2(C)C)[C@@H](OO)C(CO)=C[C@]1(O)C(=O)C(C)=C[C@@H]31`: the selectivity ratio in series [3] is less than 5.
